The results in this text go back to patent US5869714A, “Salts of omega-3-polyunsaturated fatty acids and pharmaceutical formulations containing them” (Prospa B.V., priority 1994, dated 1999).

Data set [1] has as its system erythrocyte phospholipids. Briefly: DHA content of erythrocyte phospholipids in healthy volunteers after 3 weeks oral treatment. The class given is in vivo. As to conditions: 1 g of DHA daily for 3 weeks. Here is the method:
Considering that the phospholipid class of the erythrocyte membrane, along with the degree of unsaturation of the acyl chains, does condition red cell deformability and blood viscosity, it has been conducted a study to ascertain the effect of the salts in question on erythrocyte phospholipid composition, which we describe hereunder in illustration. 8 healthy volunteers were then selected and divided into 4 groups which were treated by oral route for 3 weeks with a daily quantity of DHA 1.0 g in the form of ethyl ester (1.1 g), sodium salt (1.1 g), choline salt (1.3 g) and ethanolamine salt (1.2 g). Before and after treatment samples of venous blood were collected and sodium citrate added, then the erythrocytes were isolated, washed for 3 times with saline solution (0.15M NaCl, pH 7.4) at 0° and again suspended in saline solution. 1-ml samples from the red cell suspensions were treated with 5 ml of methanol for 10 minutes then with 5 ml of chloroform containing 2 mg/100 ml of the antioxidant 2,6-di-tert.butyl-4-methyl-phenol (BHT). The organic solvents originating from 3 extractions were evaporated to dryness and the residue, formed by the erythrocyte phospholipids, was subjected to bidimensional chromatography according to Turner J. D. and Rouser G., Anal. Biochem. (Part 1--Erythrocyte lipids), 38, 423, 1970 to separate the different phospholipid classes: silica gel 60H (90 g, Merck) plus Fluorisil (7.2 g, BDH Chemicals) plates were used; the solvent systems consisted of chloroform:methanol: 25% ammonia:water (90:54:5.5:5.5) and chloroform:methanol:acetone:acetic acid:water (60:20:80:20:10). The various classes were identified against standard phospolipids (Sigma Chemical). A sample of total phospholipids and the various stains isolated were treated with 1.5 ml of boron trifluoride-methanol for 1 h at 65° C. under nitrogen, to prepare the methyl esters of the acids contained in the phospholipids to undergo gas-chromatography. To this end a Hewlet-Packard 5890 gas-chromatograph was used, fitted with a ionisation flame detector and with an HPl column 25 m in length and 0.31 mm in int. diameter; elium was used as the carrier gas, the injection port temperature was 320° C. and the detector temperature 340° C. The chamber temperature was programmed at 170° C. for 1 min., then increased by 4°°C./min up to 250° C. and kept at this temperature for 15 minutes.

Data set [2] has as its system thrombus growth rate induced by ADP in the hamster microvascular system. Briefly: in vivo antithrombotic action: growth rate of thrombus induced by ADP in hamster microvascular system. As to conditions: oral; for antithrombotic activity (in words): 10 days. The arrangement: species or system hamster (Mesocricetus auratus). From the text: Considered however that this action is not fully indicative of the possible therapeutic effects of a drug, we measured the in vivo effect of the new salts in extremely significant tests, by determining for instance, their effect on growth rate of a thrombus induced by a known aggregatory agent (adenosine diphosphate; ADP) in the hamster microvascular system (in vivo antithrombotic action).
(§1) In the course of a typical experiment, male hamsters of the Mesocricetus auratus genus, weighing 95-115 g, were acclimatized for 1 week in the laboratory before starting the study, then semi-chronically treated by oral route, for 10 consecutive days with the products under examination. More precisely, the animals were divided into 4 groups: group I received the vehicle alone, group II received DHA ethyl ester 100 mg/kg (equivalent to DHA 92 mg/kg), group III and IV were given DHA 50 mg/kg in the form of ethanolamine salt (59.3 mg/kg) and choline salt (65.7 mg/kg respectively).One hour following the last dose the animals were anaesthetized with sodium pentobarbitone (90 mg/kg, i.p.), the cheek pouch everted with a cotton wool bud and the upper layer and the underlying a vascular connective tissue removed with ophthalmic scissors to expose the lower vascular layer which was then bathed with saline solution and examined under a Leitz Dialux microscope (magnification×250).
Evaluation of the antithrombotic activity requires measuring the growth rate of a thrombus (white body) in the microcirculation induced by the iontophoresis of ADP from a micropipette through the vessel wall. A micropipette of diameter 12μ was filled with 10^-2 M solution of ADP connected with a silver/silver chloride reference electrode placed in the animal's mouth and applied to a venule of diameter 16-40μ. By applying a negative potential to the micropipette, ADP (2×10^-14moles per second) was injected which caused the formation of a white body (platelet thrombus) gradually growing from the wall of the venule. The growth rate of the thrombus was determined by the time taken for 30%, 50% and 90% of the white body to form, 100% referring to total occlusion of the vessel with stasis. When the current was switched off, the white body rapidly embolised and no new white bodies formed until the current was re-applied. Inhibition of thrombus growth rate was calculated by comparing measurements in treated animals with those obtained in the control group (Table 2).

In data set [3] the test system is arteriolar thrombus disaggregation. The experiment in a line: thrombolytic action: arteriolar thrombus disaggregation time after electrical vascular damage in the hamster. The class given is in vivo, hamster (Mesocricetus auratus). The note with it: oral; for thrombolytic activity (in words): 10 days. Here is the method: Through a different in vivo experimental model also the effect on thrombus formation and disaggregation was evaluated in the hamster, following vascular damage induced by electrical stimulation (thrombolytic action).
as §1
For the evaluation of the thrombolytic activity a micropipette was filled with 1.0M potassium chloride, applied to an arteriole of diameter 40-60μ and connected to a reference electrode placed in the animal's mouth. A negative potential was applied for 5 seconds using a Grass S48 stimulator to produce a current of 20-30 μA. A second micropipette containing 10^-2 M ADP was applied to the site of electrical damage and a negative potential applied, for 3 seconds. After the current was switched off, the time taken for the resultant thrombus to form and to disaggregate (about 40 seconds) was recorded using a stopwatch. The process of ADP stimulation of the arteriole damaged site was repeated several times and the mean was recorded of the values obtained over one hour and compared with that of the control animals.
The percentage change in the persistence of the thrombus adhering to the damaged site in the treated and untreated animals is therefore an index of the thrombolytic activity of the drug (Table 3).

The nature of data set [4]: water solubility. It is filed as physicochemical.
The mark [5] stands for this setting: maximum, equiv. to DHA 50 mg/kg × 10 days.

Structures can show the parent of a compound that is named as a salt.

`CC/C=C\C/C=C\C/C=C\C/C=C\C/C=C\C/C=C\CCC(=O)O` [DHA choline salt]: the “Percent increase in DHA content of erythrocyte phospholipids as compared to baseline values: Phosphatidylcholine” value (“Percent increase … Phosphatidylcholine” below) in data set [1] was determined as 146%. The “Percent increase in DHA content of erythrocyte phospholipids as compared to baseline values: Phosphatidylethanolamine” value (from here on “Percent increase … Phosphatidylethanolamine”) in data set [1] amounted to 38%. The “Percent increase in DHA content of erythrocyte phospholipids as compared to baseline values: Total phospholipids” value (“Percent increase … Total phospholipids” below) in data set [1] is reported as 102%. Further, the “Percentage reduction, as compared to the controls, of thrombus growth rate induced by ADP” value (from here on “Percentage reduction … by ADP”) in data set [2] (60 minutes post-dose, equiv. to DHA 50 mg/kg × 10 days) is 15.6%; in data set [2] (70 minutes post-dose, equiv. to DHA 50 mg/kg × 10 days), 35.4%; in data set [2] (80 minutes post-dose, equiv. to DHA 50 mg/kg × 10 days) it was 28.3%; in data set [2] (90 minutes post-dose, equiv. to DHA 50 mg/kg × 10 days) it was 34.2%; in data set [2] (100 minutes post-dose, equiv. to DHA 50 mg/kg × 10 days), 20.8%; in data set [2] (110 minutes post-dose, equiv. to DHA 50 mg/kg × 10 days) it was 20.2%. Moreover, the “Percentage reduction … by ADP” value in data set [2] (120 minutes post-dose, equiv. to DHA 50 mg/kg × 10 days) worked out at 24.7%. In data set [2] (setting [5]), the “percentage reduction in ADP-induced thrombus growth rate, of the order of max.” value was 33-34%. In data set [2], the “antithrombotic activity (in words)” value is “highly active”. Besides, the “Percentage reduction, as compared to the controls, of arteriolar thrombus disaggregation time” value in data set [3] (60-70 minutes post-dose, equiv. to DHA 50 mg/kg × 10 days) is given as 31.6%; in data set [3] (70-80 minutes post-dose, equiv. to DHA 50 mg/kg × 10 days) it was 32.8%; in data set [3] (80-90 minutes post-dose, equiv. to DHA 50 mg/kg × 10 days), 35.4%; in data set [3] (90-100 minutes post-dose, equiv. to DHA 50 mg/kg × 10 days), 37.7%; in data set [3] (100-110 minutes post-dose, equiv. to DHA 50 mg/kg × 10 days), 28.6%; in data set [3] (110-120 minutes post-dose, equiv. to DHA 50 mg/kg × 10 days), 29.1%. In data set [3] (setting [5]), the “reduction in disaggregation time” value was 37-38%. For the same compound, the “thrombolytic activity (in words)” value in data set [3] was “definitely more active, if given at the same doses”.

Regarding `CC/C=C\C/C=C\C/C=C\C/C=C\C/C=C\C/C=C\CCC(=O)OCC` [DHA ethyl ester, reference compound], the “Percent increase … Phosphatidylcholine” value in data set [1] was found to be 77%. Moreover, the “Percent increase … Phosphatidylethanolamine” value in data set [1] is 10%. In addition, the “Percent increase … Total phospholipids” value in data set [1] is on record as 56%. Besides, the “Percentage reduction … by ADP” value in data set [2] (60 minutes post-dose, 100 mg/kg × 10 days) is listed as 5.5%; in data set [2] (70 minutes post-dose, 100 mg/kg × 10 days) it was 12.5%; in data set [2] (80 minutes post-dose, 100 mg/kg × 10 days), 26.3%; in data set [2] (90 minutes post-dose, 100 mg/kg × 10 days) it was 17.4%; in data set [2] (100 minutes post-dose, 100 mg/kg × 10 days), 15.1%; in data set [2] (110 minutes post-dose, 100 mg/kg × 10 days) it was 8.7%. Moreover, the “Percentage reduction … by ADP” value in data set [2] (120 minutes post-dose, 100 mg/kg × 10 days) was determined as 14.9%. Further, in data set [2], the “antithrombotic activity (in words)” value is reported as “moderately active”. The “Percentage reduction, as compared to the controls, of arteriolar thrombus disaggregation time” value in data set [3] (60-70 minutes post-dose, 100 mg/kg × 10 days) stood at 21.4%; in data set [3] (70-80 minutes post-dose, 100 mg/kg × 10 days), 30.5%; in data set [3] (80-90 minutes post-dose, 100 mg/kg × 10 days), 36.2%; in data set [3] (90-100 minutes post-dose, 100 mg/kg × 10 days), 32.9%; in data set [3] (100-110 minutes post-dose, 100 mg/kg × 10 days), 27.8%; in data set [3] (110-120 minutes post-dose, 100 mg/kg × 10 days), 25.9%. For the same compound, the “percentage reduction in arteriolar thrombus disaggregation time” value in data set [3] (maximum, 100 mg/kg × 10 days) was found to be 36.2%. The “thrombolytic activity (in words)” value in data set [3] is on record as “highly active”.

On to `CC/C=C\C/C=C\C/C=C\C/C=C\C/C=C\C/C=C\CCC(=O)O` [DHA sodium salt, reference compound], for which, in data set [1] (sodium salt), the “Percent increase … Phosphatidylcholine” value worked out at 93%, the “Percent increase … Phosphatidylethanolamine” value was determined as 25% and the “Percent increase … Total phospholipids” value is listed as 75%.

In the case of `CC/C=C\C/C=C\C/C=C\C/C=C\C/C=C\CCCC(=O)O` [EPA choline salt], in data set [4], the water solubility entry is given as “water-soiuble”.

Turning to `CC/C=C\C/C=C\C/C=C\C/C=C\C/C=C\CCCC(=O)O` [EPA ethanolamine salt], the water solubility result in data set [4] is on record as “highly water-soluble”.
